Laboratory results as given in ChEMBL document CHEMBL1201862, “PubChem BioAssay data set” (2004).
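Each compound was tested at five concentrations against cells in 96-well plates for 48 hours. GI50 = concentration required for 50% inhibition of growth.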 Active and inactive are the calls of the source. No stated cut-off is given here; in the data, active = GI50 up to about 1.1 µM and inactive = higher.

What was measured:
Experiment in all cases: growth of human tumour cells (NCI), 48 h
[1] = test system: A549
[2] = test system: COLO 205
[3] = test system: HL-60
[4] = test system: HOP-62
[5] = test system: HT-29
[6] = test system: K562
[7] = test system: MOLT-4
[8] = test system: NCI-H460
[9] = test system: NCI-H522
[10] = test system: OVCAR-3
[11] = test system: OVCAR-4
[12] = test system: SK-MEL-2
[13] = test system: SW-620
[14] = test system: U-251
[15] = test system: UACC-257
[16] = test system: UACC-62
[17] = test system: UO-31
[18] = test system: HCC 2998
[19] = test system: RXF 393
[20] = test system: SK-MEL-28

Structure (SMILES)	GI50 [1]	GI50 [2]	GI50 [3]	GI50 [4]	GI50 [5]	GI50 [6]	GI50 [7]	GI50 [8]	GI50 [9]	GI50 [10]	GI50 [11]	GI50 [12]	GI50 [13]	GI50 [14]	GI50 [15]	GI50 [16]	GI50 [17]	GI50 [18]	GI50 [19]	GI50 [20]
CCOC(=O)C1=C(C)N(c2ccc(OC)cc2)C2(O)C=CC(O)=C3C(=O)c4ccccc4C(=O)C312 (configuration not stated)	11.1 µM (inactive)	11.5 µM (inactive)	5.93 µM (inactive)	13.8 µM (inactive)	17.9 µM (inactive)	12.6 µM (inactive)	3.89 µM (inactive)	11.5 µM (inactive)	2.57 µM (inactive)	3.06 µM (inactive)	2.99 µM (inactive)	16.3 µM (inactive)	13.5 µM (inactive)	8.49 µM (inactive)	15.7 µM (inactive)	12.5 µM (inactive)	13.9 µM (inactive)			
COc1cccc2c1C(=O)c1c(O)c3c(c(O)c1C2=O)CC(O)(C(=O)CO)CC3OC1CC(N)C(I)C(C)O1 (configuration not stated)	0.736 µM (active)	13.3 µM (inactive)	0.428 µM (active)	1.6 µM (inactive)	3.15 µM (inactive)	4.76 µM (inactive)	0.335 µM (active)	0.313 µM (active)	2.9 µM (inactive)	> 33.4 µM (inactive)	4.01 µM (inactive)	9.79 µM (inactive)	3.08 µM (inactive)	2.7 µM (inactive)	> 29.3 µM (inactive)	1.58 µM (inactive)	4.88 µM (inactive)	13.5 µM (inactive)	2.44 µM (inactive)	15.2 µM (inactive)
Nc1nc2cc(COc3ccc(C(=O)O)cc3)ccc2nc1-c1ccccc1	> 10 µM (inactive)	> 10 µM (inactive)	> 10 µM (inactive)	> 10 µM (inactive)	> 10 µM (inactive)	> 10 µM (inactive)	> 10 µM (inactive)	> 10 µM (inactive)	> 10 µM (inactive)	> 10 µM (inactive)	> 10 µM (inactive)	> 10 µM (inactive)	> 10 µM (inactive)	> 10 µM (inactive)	> 10 µM (inactive)	> 10 µM (inactive)	> 10 µM (inactive)	> 10 µM (inactive)	> 10 µM (inactive)	> 10 µM (inactive)
c1ccc(C(c2ccccc2)[P+](c2ccccc2)(c2ccccc2)c2ccccc2)cc1	0.422 µM (active)	0.289 µM (active)	0.182 µM (active)	0.867 µM (active)	0.332 µM (active)	0.427 µM (active)	0.419 µM (active)	0.456 µM (active)	0.223 µM (active)	0.336 µM (active)	0.479 µM (active)	0.305 µM (active)	0.466 µM (active)	0.431 µM (active)	0.348 µM (active)	0.332 µM (active)	0.951 µM (active)	0.365 µM (active)	2.24 µM (inactive)	0.446 µM (active)
CCOC(=O)C1=C(C)N(NC(N)=O)C2(O)CCCC(=O)C12C (configuration not stated)	> 100 µM (inactive)	> 100 µM (inactive)			> 100 µM (inactive)				> 100 µM (inactive)	> 100 µM (inactive)	> 100 µM (inactive)	> 100 µM (inactive)	> 100 µM (inactive)	> 100 µM (inactive)	> 100 µM (inactive)	> 100 µM (inactive)		> 100 µM (inactive)	> 100 µM (inactive)	> 100 µM (inactive)
Cc1cc(N(CCOS(C)(=O)=O)CCOS(C)(=O)=O)ccc1C=O	0.979 µM (active)	1.39 µM (inactive)	2.98 µM (inactive)		4.49 µM (inactive)	9.93 µM (inactive)	1.61 µM (inactive)	0.078 µM (active)	0.142 µM (active)	6.19 µM (inactive)	18.2 µM (inactive)	21.1 µM (inactive)	0.449 µM (active)	8.36 µM (inactive)	11.7 µM (inactive)	2.43 µM (inactive)	2.88 µM (inactive)	4.65 µM (inactive)		3.68 µM (inactive)
CSc1nc(SC)c2cnn(CC3CO3)c2n1 (configuration not stated)	25.4 µM (inactive)	18.7 µM (inactive)	17.5 µM (inactive)	18.7 µM (inactive)	22 µM (inactive)	26.5 µM (inactive)	2.17 µM (inactive)	21 µM (inactive)	26.2 µM (inactive)	25.1 µM (inactive)	20.7 µM (inactive)	16.7 µM (inactive)	11.6 µM (inactive)	19.1 µM (inactive)	19.2 µM (inactive)	19.2 µM (inactive)	19.5 µM (inactive)	17.4 µM (inactive)	17.8 µM (inactive)	13.9 µM (inactive)
O=C(NN1C(=O)C(Cl)C1c1ccc([N+](=O)[O-])cc1)c1ccccc1O (configuration not stated)	> 100 µM (inactive)	> 100 µM (inactive)	> 100 µM (inactive)	> 100 µM (inactive)	> 100 µM (inactive)	> 100 µM (inactive)	> 100 µM (inactive)	> 100 µM (inactive)	> 100 µM (inactive)	> 100 µM (inactive)	> 100 µM (inactive)	> 100 µM (inactive)	> 100 µM (inactive)	> 100 µM (inactive)	> 100 µM (inactive)	> 100 µM (inactive)	> 100 µM (inactive)		> 100 µM (inactive)	> 100 µM (inactive)
CC(=O)NNc1nc(C)c(C(=O)NNC(=O)C(=O)Nc2ccc([N+](=O)[O-])cc2[N+](=O)[O-])s1	68.9 µM (inactive)	> 100 µM (inactive)	64.9 µM (inactive)	> 100 µM (inactive)	55.3 µM (inactive)	39.4 µM (inactive)	37.1 µM (inactive)	> 100 µM (inactive)	30.6 µM (inactive)		> 100 µM (inactive)	> 100 µM (inactive)	> 100 µM (inactive)	68.7 µM (inactive)	> 100 µM (inactive)	> 100 µM (inactive)	> 100 µM (inactive)	> 100 µM (inactive)	80.4 µM (inactive)	> 100 µM (inactive)
